Measurements from patent US11931403B2, “Compositions, systems, and methods for treating or reducing hypoxia-ischemia induced brain damage and neurobehavioral dysfunction in neonates” (UNIVERSITY OF MISSISSIPPI MEDICAL CENTER, priority 2019, dated 2024).

Experiments:
neonatal pig model of HI = settings: IV, to prevent hyperglycemia during glucose infusion before HI injury; cited from earlier work
[1] = test system: neonatal piglet model of HI; settings: bolus injection followed by continuous infusion, continued during HI exposure; cited from earlier work
[2] = design: species or system Sprague-Dawley rats; settings: rat, in vivo
Procedure: Another set of animals were prepared for ELISA study. […] Total proteins were extracted using protein lysis buffer (Invitrogen).
Ex vivo whole brain and spinal cord imaging using live imaging devices (IVIS Spectrum imaging system) was performed to provide an accurate picture of the overall bio-distribution of fluorescent labeling insulin. […] To accurately assess bio-distribution of intranasal insulin, all tissues of interest were analyzed by ELISA.

Substance: regular porcine insulin: IV regular porcine insulin used by LeBlanc et al. in a neonatal pig model of HI
- Outcome of piglets in the insulin group (neonatal pig model of HI): fared slightly better

Substance: regular insulin: regular insulin bolus and infusion to induce moderate hypoglycemia in a neonatal piglet HI model
- Brain injury with insulin-induced hypoglycemia [1]: not able to ameliorate brain injury

Substance: Alexa 546-labeled insulin: fluorescent Alexa 546-labeled insulin (Nanocs Inc) used to study distribution in brain after intranasal application
- Delivery to the central nervous system (fluorescence imaging) [2]: delivered to the central nervous system at 15 minutes
